{"source": "paper PMC2625307", "about": "(Journal of molecular biology, 2008)", "key": {"YU-2 env": {"system": "YU-2 env", "type": "cell-based, HIV-1 group M", "conditions": "JC53BL-13 cells, genetic distance to HXBc2 0.16766"}, "BaL": {"system": "BaL", "type": "cell-based, HIV-1 group M", "conditions": "PM1 cells, genetic distance to HXBc2 0.13532"}, "YU2 gp120 [1]": {"biological_target": "T1, YU2 gp120 (Human immunodeficiency virus type 1 group M subtype B, UniProt P35961)", "experiment": "Surface-plasmon resonance binding, YU2 gp120", "design": "species or system HIV-1"}, "GAB-1 fl": {"system": "GAB-1 fl", "type": "cell-based, SIVcpz (P.t.t)", "conditions": "JC53BL-13 cells, genetic distance to HXBc2 0.43711"}, "YU2 gp120 [2]": {"biological_target": "T1, YU2 gp120", "experiment": "Contact surface area of gp120, YU2", "design": "species or system HIV-1"}, "NL4.3 env": {"system": "NL4.3 env", "type": "cell-based, HIV-1 group M", "conditions": "JC53BL-13 cells, genetic distance to HXBc2 0.05769"}, "GAB-2 62 fl": {"system": "GAB-2 62 fl", "type": "cell-based, SIVcpz (P.t.t)", "conditions": "JC53BL-13 cells, genetic distance to HXBc2 0.47819"}, "HIV-1 gp120": {"system": "HIV-1 gp120", "conditions": "vs biphenyl counterpart (CD4M33, CD4M47)"}, "HXBc2 gp120": {"biological_target": "HXBc2 gp120 (Human immunodeficiency virus type 1 group M subtype B, UniProt P04578)", "experiment": "Surface-plasmon resonance binding, HXBc2 gp120", "design": "species or system HIV-1"}, "MN-25": {"system": "MN-25", "type": "cell-based, HIV-1 group M", "conditions": "JC53BL-13 cells, genetic distance to HXBc2 0.17951"}, "IIIB": {"system": "IIIB", "type": "cell-based, HIV-1 group M", "conditions": "PM1 cells, genetic distance to HXBc2 0.03060"}, "YU2 gp120 [3]": {"biological_target": "T1, YU2 gp120", "design": "species or system HIV-1", "conditions": "vs other mimetics"}}}
{"molecule": "CC(C)C[C@@H]1NC(=O)CNC(=O)[C@H](CC(C)C)NC(=O)[C@H](CO)NC(=O)[C@H](CCCCN)NC(=O)[C@@H]2CSSC[C@@H](C(=O)N[C@H](C(N)=O)C(C)C)NC(=O)[C@H](C)NC(=O)[C@@H]3CSSC[C@H](NC(=O)[C@H](Cc4ccccc4)NC(=O)[C@H](Cc4c[nH]cn4)NC(=O)[C@H](CC(C)C)NC(=O)[C@H](CC(N)=O)NC(=O)CCSSC[C@H](NC(=O)[C@H](CCCCN)NC(=O)CNC(=O)[C@H](CC(C)C)NC1=O)C(=O)N[C@@H](C)C(=O)NCC(=O)N[C@@H](CO)C(=O)N[C@@H](Cc1ccccc1)C(=O)N3)C(=O)N[C@@H](CCC(N)=O)C(=O)N[C@@H](CC(C)C)C(=O)N[C@@H](CCCNC(=N)N)C(=O)N2", "note": "[[Phe^23]M33]", "values": [{"measurement": "IC50", "setting": "YU-2 env", "result": 1000, "unit": "nM"}, {"measurement": "IC50", "setting": "BaL", "result": 200, "unit": "nM"}, {"measurement": "Kd", "setting": "YU2 gp120 [1]", "result": "35.1 ± 0.18", "unit": "nM"}, {"measurement": "IC50", "setting": "GAB-1 fl", "result": 350, "unit": "nM"}, {"measurement": "Contact surface area of gp120, total", "setting": "YU2 gp120 [2]; asymmetric unit molecule (1)", "result": 363.8, "unit": "Å^2"}, {"measurement": "Contact surface area of gp120, total", "setting": "YU2 gp120 [2]; asymmetric unit molecule (2)", "result": 398.0, "unit": "Å^2"}, {"measurement": "IC50", "setting": "NL4.3 env", "result": 13, "unit": "nM"}, {"measurement": "IC50", "setting": "GAB-2 62 fl", "result": 1000, "unit": "nM"}, {"measurement": "on-rate compared with biphenyl counterpart", "setting": "HIV-1 gp120", "result": "about half as fast"}, {"measurement": "Kd", "setting": "HXBc2 gp120", "result": "18.9 ± 0.14", "unit": "nM"}, {"measurement": "IC50", "setting": "MN-25", "result": 3600, "unit": "nM"}, {"measurement": "IC50", "setting": "IIIB", "result": 260, "unit": "nM"}, {"measurement": "similarity of induced gp120 conformation to that induced by CD4", "setting": "YU2 gp120 [3]", "result": "the closest mimic to CD4"}]}
